From patent publication US9642354B2, “Method of freezing cells” (Cellulis, S.L., priority 2010, dated 2017)

Key:
[1] = system: Smac cells; experiment: Cytotoxic test (MTT assay) on smooth muscle aortic cells (SMAC) thawed from two-layer frozen 96-well plate; type: cell-based, rat; details: 24 h treatment started 24 h post-thawing, 5-Fluorouracil 20, 40, 80, 100 μg/ml, Tamoxifen 0.02, 1.25, 2.5, 5 μM
Description: (§1) Balb3T3 (ATCC, LCC Standards) fibroblasts and smooth muscle aortic cells (SMAC, freshly isolated from Sprague Dawley rats, Harlan Laboratories) primary cells were cultured in complete culture medium consisting of endotoxin-free DMEM (Sigma-Aldrich) supplemented with 10% FCS, 100 μg/ml penicillin and 100 IU/ml streptomycin (Sigma-Aldrich). […] The resulting cells were allowed to grow for twelve days prior to cryopresentation. Both cell types were grown in flasks until they were 80% confluent and then harvested. Harvesting took place by incubating cells in 5 ml of PBS with 0.05% EDTA for 2 minutes, and final detachment was achieved by incubation in 0.1% trypsin and 0.05% EDTA for another 5 minutes. Cells were centrifuged at 400×G for 5 minutes. Then, a total of 4.8 ml of a solution at 4° C. containing 50,000 cells/50 μl of freezing 80% DMEM, 10% FCS, 10% DMSO (AppliChem) medium was prepared (cell density determined by haemocytometer), forming the so-called freezing solution. Besides, 100 μl of complete culture medium was disposed in each cell of a 96-well plate and frozen down to −80° C. Once frozen, the plate is recovered and 50 μl/well of the said freezing solution were added on top each well containing 100 μl of complete culture medium already frozen. […] Twenty four hours later a MTT assay was performed and cytotoxicity was calculated according to the absorbance values. […]

[2] = system: BALB3T3 cells; experiment: Cytotoxic test (MTT assay) on Balb3T3 fibroblasts thawed from two-layer frozen 96-well plate; type: cell-based; details: 24 h treatment started 24 h post-thawing, 5-Fluorouracil 20, 40, 80, 100 μg/ml, Tamoxifen 0.02, 1.25, 2.5, 5 μM
Description: as §1

O=c1[nH]cc(F)c(=O)[nH]1 [5-Fluorouracil]
cytotoxic response of Smac cells [1]: Concentration dependent cytotoxic response | cytotoxic response of BALB3T3 cells [2]: Concentration dependent cytotoxic response

CC/C(=C(\c1ccccc1)c1ccc(OCCN(C)C)cc1)c1ccccc1 [Tamoxifen]
cytotoxic response of Smac cells [1]: Concentration dependent cytotoxic response | cytotoxic response of BALB3T3 cells [2]: Concentration dependent cytotoxic response
